Measured values from patent publication US7495023B2, “Thio semicarbazone and semicarbozone inhibitors of cysteine proteases and methods of their use” (The Regents of the University of California, priority 2002, dated 2009).
“Also recorded” adds a separate entry of the source. Like-named read-outs stand apart in the source and are kept apart here.

Columns and labels:
[1] = target: T. cruzi cathepsin L-like protease (cruzain) (Trypanosoma cruzi, UniProt P25779); assay: biochemical
Experimental: (§1) IC50 Determinations. Inhibitors were screened for effectiveness against the T. cruzi cathepsin L-like protease (cruzain) using purified recombinant protein. Cruzain (1 nM) was incubated with 20-50000 nM inhibitor in 100 mM sodium acetate-5 mM DTT buffer (pH 5.50, buffer A) for 5 min at room temperature. […] The increase in fluorescence (excitation at 355 nm and emission at 460 nm) was followed with an automated microtiter plate spectrofluorimeter (Molecular Devices, spectraMAX Gemini). Inhibitor stock solutions were prepared at 20 mM in DMSO, and serial dilutions were made in DMSO (0.7% DMSO in assay). Controls were performed using enzyme alone and enzyme with DMSO. IC50 values were determined graphically using inhibitor concentrations in the linear portion of a plot of inhibition versus log [I] (seven concentrations were tested, and at least two were in the linear range).

[2] = Solubility observations (cell culture medium, methanol); type: physicochemical
J774 macrophages = assay: Toxicity to mammalian host cells in the cell culture assay; type: cell-based
Experimental: (§2) Drug Screening in Cell Culture. Mammalian cells are routinely cultured in RPMI-1640 medium supplemented with 5-10% heat-inactivated fetal calf serum (FCS) at 37° C. in 5% CO2. The Y strain of T. cruzi is maintained by serial passage in bovine embryo skeletal muscle (BESM) cells. Infectious trypomastigotes are collected from culture supernatants. For drug assays, J774 macrophages were irradiated (5000 rad) and plated onto six-well tissue culture plates 24 h prior to infection with ˜106 trypomastigotes/well. Parasites are removed 2 h postinfection, and the medium is supplemented with the appropriate cysteine protease inhibitor (10 μM). Inhibitor stocks (10 mM) in DMSO were stored at 4° C. J774 monolayers treated with a blank containing DMSO are used as a negative control, and monolayers treated with a known trypanocidal inhibitor, 10 μM N-methyl piperazine-Phe-homoPhe-vinyl sulfone phenyl (N-Pip-F-hF-VSPh) acted as a positive control (Engel et al., J. Exp. Med., 188:725-734 (1998)). RPMI medium with or without inhibitor is replaced every 48 h. Cultures are maintained for up to 30 days and monitored daily by contrast phase microscopy. […] The comparative effectiveness of each inhibitor was estimated from plots of the duration of the intracellular cycle of T. cruzi (days) in treated vs untreated control wells.
The toxicity of compounds to mammalian host cells was also evaluated in the assay.

T. cruzi (Y strain) = assay: Anti-trypanosomal cell culture assay, T. cruzi-infected J774 macrophages; type: cell-based; settings: for effect on T. cruzi in cell culture (trypanocidal / trypanostatic / inactive): inhibitor 10 μM, cultures up to 30 days
Experimental: as §2, with “Parasites are removed 2 h postinfection, and the medium is supplemented with the appropriate cysteine protease inhibitor (10 μM).” left out

parasite P. falciparum = assay: WHO screen against P. falciparum parasites; type: cell-based
Text: (§3) Thio semicarbazones have been tested against falcipain 2, which is the cysteine protease of parasites related to malaria. […] The WHO (World Health Organization) helped to screen compound 1i against a couple of parasite strains. It has activity against T. cruzi and P. falciparum parasites.

cruzain = cruzain (Trypanosoma cruzi, UniProt P25779); type: biochemical; settings: incubation 90 s to 24 h
Sequence of cruzain (P25779 123-467): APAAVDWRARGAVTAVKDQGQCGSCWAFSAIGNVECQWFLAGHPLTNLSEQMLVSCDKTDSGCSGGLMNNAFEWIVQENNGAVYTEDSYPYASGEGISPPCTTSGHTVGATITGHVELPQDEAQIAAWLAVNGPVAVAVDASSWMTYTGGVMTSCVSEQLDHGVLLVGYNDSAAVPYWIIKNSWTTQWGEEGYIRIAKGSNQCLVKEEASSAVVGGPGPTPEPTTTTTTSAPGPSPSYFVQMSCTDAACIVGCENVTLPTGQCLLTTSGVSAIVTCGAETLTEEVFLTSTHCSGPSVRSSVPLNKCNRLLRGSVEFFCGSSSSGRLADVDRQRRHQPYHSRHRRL
Experimental: The time dependence of inhibition was determined by incubating cruzain with inhibitors, DMSO, or enzyme alone at room temperature for time points between 90 s and 24 h. The enzymatic activity was determined as above.
A known irreversible inhibitor, K002 (morpholino urea-Phe-homoPhe-vinyl sulfone benzene; Axys Pharmaceuticals Inc., South San Francisco, Calif.), and a known reversible covalent inhibitor, leupeptin, were used as controls for the thio semicarbazones.

T. cruzi parasites = assay: WHO screen against T. cruzi parasites; type: cell-based
Text: as §3

falcipain-2 = target: T1, falcipain-2 (Plasmodium falciparum, UniProt Q8I6U4); assay: Inhibition of falcipain-2; type: biochemical
T1 sequence (Q8I6U4 244-484): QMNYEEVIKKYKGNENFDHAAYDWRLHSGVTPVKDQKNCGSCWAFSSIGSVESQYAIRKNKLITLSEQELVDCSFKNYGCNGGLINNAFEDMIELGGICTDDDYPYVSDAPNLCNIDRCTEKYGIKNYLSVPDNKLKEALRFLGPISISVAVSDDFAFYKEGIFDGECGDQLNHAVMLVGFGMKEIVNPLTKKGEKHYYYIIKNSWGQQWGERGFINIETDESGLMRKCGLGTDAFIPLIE
Text: as §3

human cathepsin B = human cathepsin B (Homo sapiens, UniProt P07858); assay: Inhibition of cathepsin B protease activity; type: biochemical
Experimental: as §1, with “protein.” for “protein. Cruzain (1 nM) was incubated with 20-50000 nM inhibitor in 100 mM sodium acetate-5 mM DTT buffer (pH 5.50, buffer A) for 5 min at room temperature.”
Enzyme assays to test the ability of thio semicarbazone compounds to inhibit the cysteine protease activity of rhodesain and cathepsin B were carried out as described for assays to test inhibition of protease activity by cruzain. In these assays, inhibition of cruzain is included as a positive control.

T. cruzi [3] = settings: mouse model; cited from earlier work
T. cruzi [4] = settings: cited from earlier work
[5] = 5 min incubation, room temperature, pH 5.50, read-out: IC50 against cruzain

Sequence of T. cruzi cathepsin L-like protease (cruzain) (P25779 123-467): as the sequence (P25779 123-467) above

## NC(=S)NN=Cc1ccc(-c2ccc(Cl)cc2)o1 [Compound 1b, 5-(4-Chlorophenyl)-2-furancarboxaldehyde Thio Semicarbazone]
[1]; [5]
  IC50: < 300 nM
[2]
  solubility in the cell culture medium, in words: solubility (1b) appears to be a problem

## COc1ccccc1-c1ccc(C=NNC(N)=S)o1 [Compound 1c, 5-(2-Methoxyphenyl)-2-furancarboxaldehyde Thio Semicarbazone]
[1]
  IC50: < 300 nM
J774 macrophages
  toxicity to host cells, in words: Toxicity
other
  melting point: 209.5 to 211.1 °C

## NC(=S)NN=Cc1ccc(-c2cccc(Cl)c2)o1 [Compound 1e, 5-(3-Chlorophenyl)-2-furancarboxaldehyde Thio Semicarbazone]
[1]; [5]
  IC50: < 300 nM
T. cruzi (Y strain); compound at 5 μM, untreated infected cells die within 5 days
  survival of infected host cells: 10 days
T. cruzi (Y strain)
  effect on T. cruzi in cell culture (trypanocidal / trypanostatic / inactive): trypanostatic
J774 macrophages
  concentration at which toxicity to host cells was observed: 10 µM
other
  melting point: 198.8 to 199.8 °C

## NC(=S)NN=Cc1ccc(-c2ccc(Br)cc2)o1 [Compound 1f, 5-(4-Bromophenyl)-2-furancarboxaldehyde Thio Semicarbazone]
[1]; [5]
  IC50: < 300 nM
T. cruzi (Y strain); inhibitor 10 μM (method), untreated infected cells die within 5 days
  survival of infected host cells / duration of trypanostatic effect: 14 days
T. cruzi (Y strain)
  effect on T. cruzi in cell culture (trypanocidal / trypanostatic / inactive): trypanostatic
[2]
  solubility in the cell culture medium, in words: crystallized in the cell culture medium

## CCC(=NNC(N)=S)c1cccc(Br)c1 [Compound 1i, 3′-Bromopropiophenone Thio Semicarbazone]
Parasite P. falciparum; Plasmodium falciparum
  IC50: 16000 to 32000 nM
Parasite P. falciparum; WHO screen
  activity against P. falciparum parasites: has activity
T. cruzi (Y strain)
  effect on T. cruzi in cell culture (trypanocidal / trypanostatic / inactive): significant trypanocidal activity; also recorded: cured of trypanosomal infection; also recorded: trypanocidal effect
T. cruzi (Y strain); treated for three weeks, then compound removed, experiment terminated
  time postinfection that cells stayed healthy and parasite-free: ≥ 6.5 weeks
J774 macrophages
  toxicity to host cells, in words: without toxicity to host cells
cruzain
  time dependence of cruzain inhibition: time-dependent
[2]
  solubility in the cell culture medium, in words: without toxicity to host cells or solubility problems
T. cruzi parasites
  activity against T. cruzi parasites: has activity

## COc1ccc2ccccc2c1C=NNC(N)=S [Compound 1n, 2-Methoxy-1-naphthaldehyde Thio Semicarbazone]
[1]; [5]
  IC50: 560 nM
J774 macrophages
  toxicity to host cells, in words: Toxicity

## CCC(=NNC(N)=S)c1ccc(Cl)c(Cl)c1 [Compound 2i, 3′,4′-Dichloropropiophenone Thio Semicarbazone]
[1]
  cruzain inhibitory activity, in words: better IC50 values than 1i
[1]; [5]
  IC50: 20 nM
[1]; compared to 1i
  increase in activity over 1i (cruzain): ~5 fold
falcipain-2
  IC50: 150 nM

## CC1CN(C(N)=S)N=C1c1ccc(Cl)c(Cl)c1 (stereo not shown) [Compound 4f, 3-(3,4-Dichlorophenyl)-4-methyl-2-pyrazoline-1-thiocarboxamide]
[1]
  cruzain inhibitory activity, in words: better than that of 1i
T. cruzi (Y strain)
  effect on T. cruzi in cell culture (trypanocidal / trypanostatic / inactive): trypanostatic
[2]; methanol
  solubility in methanol, in words: poorest solubility in methanol

## O=C(N[C@H](/C=C/S(=O)(=O)c1ccccc1)CCc1ccccc1)[C@H](Cc1ccccc1)NC(=O)N1CCOCC1 [Compound K002, morpholino urea-Phe-homoPhe-vinyl sulfone benzene]
Human cathepsin B; read-out: cathepsin B IC50 (μM) 5 min preincubation, 5 min preincubation
  IC50: 0.5 µM
Human cathepsin B; read-out: cathepsin B IC50 (μM) 30 min preincubation, 30 min preincubation
  IC50: < 0.1 µM
cruzain
  time dependence of cruzain inhibition: rapidly time-dependent

## CN1CCN(C(=O)NC(Cc2ccccc2)C(=O)NC(C=CS(=O)(=O)c2ccccc2)CCc2ccccc2)CC1 (stereo not shown) [N-Pip-F-hF-VSPh, N-methyl piperazine-Phe-homoPhe-vinyl sulfone phenyl, reference compound]
T. cruzi (Y strain)
  effect on T. cruzi in cell culture (trypanocidal / trypanostatic / inactive): unable to survive
T. cruzi [3]
  outcome of treatment of T. cruzi-infected mice: resulted in a cure

## benzyloxy-carbonyl-L-phenylalanyl L-alanine fluoromethyl ketone [Z-Phe-Ala-FMK]
T. cruzi [4]
  effect on replication and differentiation of T. cruzi in cultures: blocks replication and differentiation of the parasite
